Results reported in patent EP0354042A2, “Aminobenzoic-acid derivatives to reduce side effects induced by an administration of immuno-suppressant” (priority 1988, dated 1990).

What was measured:
[1] = tested on: TA98 of Salmonella typhimurium; assay: Reversion assay (reversion colony test) TA98; format: cell-based; details: 5,000 µg/disk, 37°C for 2 days; Drug-free Control 13
Procedure: (§1) In addition, a reversion assay was performed using TA98 and TA100 of Salmonella typhimurium (both are histidine-requiring bacteria).
(§2) 10% by volume of 0.5 mM bithion solution containing 0.5 mM histidine was added to a soft agar solution (prepared with 6g of NaCl, 6g of agar and 1,000 ml of distilled water). Then, 0.1 ml of a solution containing 1 x 10⁸ of the bacteria and 0.1 ml of a solution of the present substance were added to 2 ml of the soft agar solution, mixed well and obtained soft agar solution was multilayered on a minimal agar medium. The medium layered was cultured at 37°C for 2 days and number of reversion colonies was counted. Furylfuramide (AF2) was used as a positive control.

[2] = tested on: Wistar male rats; assay: Saccharide tolerance test (pancreas function) of rats given CsA with the present substance; format: in vivo; details: CsA 25 mg/kg/day i.p. 3 weeks plus present substance 300 mg/kg/day orally
Procedure: (§3) Various clearance tests and a saccharide tolerance test were performed after completion of the administrations. Then, after sacrificing the rats, their blood was taken for serum biochemical and general blood tests.

[3] = tested on: Bacillus subtilis M45; assay: Mutagenicity Rec-assay, recombination repair deficient strain; details: for Growth Inhibited Area M45: 16 hours at 37°C; for Growth Inhibited Area M45 - H17: difference between strains
Procedure: (§4) First, mutagenecity was studied with Rec-assay. […] The present substance was dissolved with sterlized water, 0.05 ml of the solution was absorbed by a round filter paper having a diameter of 8 mm and immediately the filter paper was laid on the medium (B-II agar) in a manner to cover each of the satrt point of the streak. Then, the mdium was cultured for 16 hours at a temperature of 37°C and measured growth inhibited area. Kanamycin was used as a negative control and mitomycin as a positive control.

[4] = tested on: Wistar male rats; assay: Serum biochemical test, total bilirubin (liver function) of rats given CsA with the present substance; format: in vivo; details: CsA 25 mg/kg/day i.p. 3 weeks plus present substance 300 mg/kg/day orally
Procedure: as §3

[5] = tested on: Wistar male rats; assay: Kidney function (inulin clearance, serum creatinine) of rats given CsA with the present substance; format: in vivo; details: CsA 25 mg/kg/day i.p. 3 weeks plus present substance 300 mg/kg/day orally
Procedure: as §3

[6] = tested on: Bacillus subtilis H17; assay: Mutagenicity Rec-assay, recombination repair proficient strain; details: 16 hours at 37°C
Procedure: as §4

[7] = tested on: Jcl:ICR mice; assay: Acute toxicity (LD50, Litchfield-Wilcoxon); format: in vivo; details: observed 7 days; for LD₅₀ Value Intraperitoneal: in physiological saline solution; for LD₅₀ Value Oral: oral by stomach sonde, in distilled water
Procedure: The acute toxicity was studied with Jcl:ICR mice through intraperitoneal route and oral route. For intraperitoneal route, the present substance was dissolved in a physiological saline solution and a predetermined dose of the substance was administered with an injector to the cavity. For oral route, the present substance was dissolved in a distilled water and administered forcibly through a stomach sonde.
After the administration, observation of toxicopathic symptoms of the mice were continued for 7 days and based on time to time death rates of the mice, LD₅₀ values were calculated. Both surviving and dead mice were anatomized and observed certain organs.

[8] = tested on: human lymphocyte; assay: Mixed lymphocyte culture, 3H-thymidine uptake (proliferation of lymphocytes); format: cell-based; details: CsA 0.1 µg/ml plus present substance 100 µg/ml, cultured 6 days;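 further: percent suppression of proliferation derived from uptake with CsA alone versus CsA plus substance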
Procedure: A mixture of 50 µl of human lymphocyte (1.6 x 10⁶/ml) with 50 µl of the lymphocytes treated with mitomycin C (MMC) (1.7 x 10⁶/ml) was cultured for 6 days and an uptake of ³H-thymidine, an index of proliferation of lymphocyte, was studied. The medium used for culture comprised bovine fetal serum (10% in quantity) and RPMI 1640 (90% in quantity). […] From the calculated ratio, the effects of the present substance on immuno function were studied.

[9] = Body weight of rats given CsA with the present substance; format: in vivo, Wistar male rats; details: at completion of the test; CsA 25 mg/kg/day i.p. 3 weeks plus present substance 300 mg/kg/day orally
Procedure: as §3

[10] = tested on: TA100 of Salmonella typhimurium; assay: Reversion assay (reversion colony test) TA100; format: cell-based; details: 5,000 µg/disk, 37°C for 2 days; Drug-free Control 149
Procedure: as §1, §2

Row | Compound | No. of Reversion Colony TA98 [1] [n/plate] | Blood sugar value measured 10 minutes after the test [2] [mg/dL] | Insuline Value 10 Min.After The Test [2] [mµ/ml] | Insuline Value Before The Test [2] [mµ/ml] | Growth Inhibited Area M45 ([3]; 500 µg/disk) [mm] | Growth Inhibited Area M45 - H17 ([3]; 500 µg/disk) [mm] | Growth Inhibited Area M45 ([3]; 5,000 µg/disk) [mm] | Growth Inhibited Area M45 - H17 ([3]; 5,000 µg/disk) [mm] | TBI (seerum total bilirubin value) [4] [mg/dL] | Kidney Function Inulin Clearance [5] [mL/min] | Kidney Function Serum Creatinine [5] [mg/dL] | Growth Inhibited Area H17 ([6]; 500 µg/disk) [mm] | Growth Inhibited Area H17 ([6]; 5,000 µg/disk) [mm] | LD₅₀ Value Intraperitoneal [7] [mg/kg] | LD₅₀ Value Oral [7] [mg/kg] | Depressing Ratio [8] [%] | Body Weight [9] [g] | No. of Reversion Colony TA100 [10] [n/plate]
1 | O=C([O-])c1ccccc1NC1O[C@H](CO)[C@@H](O)[C@H](O)[C@H]1O.[Na+] (stereo partly drawn) [Compound 12, o-Aminobenzoic acid-N-D-glucoside] | 5 | 589 | 6.12 | 4.11 | 0 | 0 | 5 | 3 | 0.36 | 1.88 | 0.64 | 0 | 2 | 13380 | 8960 | 27 | 232 | 151
2 | O=C(O)c1ccc(NC2OC[C@H](O)[C@H](O)[C@H]2O)cc1 (stereo partly drawn) [Compound 2, p-Aminobenzoic acid-N-L-arabinoside] | 3 | 588 | 6.12 | 4.02 | 0 | 0 | 0 | 0 | 0.35 | 1.81 | 0.65 | 0 | 0 | 10220 | 10800 | 26 | 220 | 51
3 | O=C(O)c1ccc(NC2O[C@H](CO)[C@@H](O)[C@H](O)[C@H]2O)cc1 (stereo partly drawn) [Compound 10, p-Aminobenzoic acid-N-D-glucoside] | 11 | 612 | 6.02 | 4.05 | 0 | 0 | 0 | 0 | 0.36 | 1.85 | 0.65 | 0 | 0 | > 15000 | > 15000 | 26 | 235 | 104
4 | O=C([O-])c1ccccc1NC1O[C@H](CO)[C@H](O)[C@H](O)[C@H]1O.[Na+] (stereo partly drawn) [Compound 16, o-Aminobenzoic acid-N-D-galactoside] | 6 | 587 | 6.16 | 4.22 | 0 | 0 | 6 | 5 | 0.34 | 1.81 | 0.65 | 0 | 1 | 7420 | 6100 | 26 | 210 | 151
5 | O=C(O)c1ccccc1NC1OC[C@@H](O)[C@H](O)[C@H]1O (stereo partly drawn) [Compound 8, o-Aminobenzoic acid-N-D-xyloside] | 4 | 605 | 6.18 | 4.21 | 0 | 0 | 7 | 4 | 0.38 | 1.72 | 0.65 | 0 | 3 | 9270 | 6350 | 27 | 211 | 166
